Test [1] concerns NF-κB. The test is described as follows: NF-κB assay: THP1-NF-κB-LUC cells, LPS-stimulated secreted luciferase. It is filed as cell-based. Particulars: THP1-NF-κB-LUC cells, LPS-stimulated; read-out: IC50 (NF-κB assay). Put shortly: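 THP1-NF-κB-LUC cells (25k/well) were pretreated with compounds for 2 h, then stimulated with LPS (10 ng/mL) for 18 h. Secreted luciferase was measured and normalized to vehicle, and IC50 was fitted from the concentration series.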

In test [2] the test system is TNF release. The test is described as follows: TNF assay: TNF release from LPS-stimulated human PBMCs (TNF ELISA). The test is classed as cell-based. Particulars: PBMC; LPS-stimulated human PBMCs, TNF ELISA; read-out: IC50 (TNF assay). An outline of the steps:
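TNF ELISA on supernatants read-out; cells were 10k human PBMCs/well given LPS at 10 ng/mL for 18 h after a 2 h compound pre-incubation across a concentration series, with IC50 derived for suppression of TNF secretion.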

A word on the IC50: it is the concentration that gives 50% inhibition. Turning to `CCc1ccc(NS(=O)(=O)c2cc(Br)cc3c2OCCNC3=O)cc1` [BC19604], the IC50 is 1 to 10 µM in test [1] and over 10 µM in test [2].
Taken in the same sequence, the figures for `CC(C)c1ccc(NS(=O)(=O)c2cc(Br)cc3c2OCCNC3=O)cc1` [BC19605] were over 10 µM and over 10 µM.
For `COc1ccc(NS(=O)(=O)c2cc(Br)cc3c2OCCNC3=O)cc1` [BC19606], the figures for the IC50 in test [1] and in test [2] were 1 to 10 µM and over 10 µM, respectively.
The matching figures for `Cc1ccc(NS(=O)(=O)c2cc(Br)cc3c2OCCNC3=O)cc1Cl` [BC19607]: 0.1 to 1 µM and over 10 µM.
Taken in the same sequence, the figures for `O=C1NCCOc2c1cc(Br)cc2S(=O)(=O)Nc1ccc(F)cc1F` [BC19608] were 1 to 10 µM and over 10 µM.
Taken in the same sequence, the figures for `CCc1cccc(NS(=O)(=O)c2cc(Br)cc3c2OCCNC3=O)c1` [BC19609] were 1 to 10 µM and over 10 µM.
For `O=C1NCCOc2c1cc(Br)cc2S(=O)(=O)Nc1cccc(F)c1` [BC19610], the values for the IC50 in test [1] and in test [2] were 0.1 to 1 µM and over 10 µM, respectively.
Taken in the same sequence, the figures for `O=C1NCCOc2c1cc(Br)cc2S(=O)(=O)Nc1cccc(Cl)c1` [BC19611] were under 0.1 µM and over 10 µM.
Taken in the same sequence, the figures for `Cc1ccc(NS(=O)(=O)c2cc(Br)cc3c2OCCNC3=O)cc1` [BC19612] were 1 to 10 µM and over 10 µM.
The matching figures for `O=C1NCCOc2c1cc(Br)cc2S(=O)(=O)Nc1ccc(F)cc1Cl` [BC19613]: over 10 µM and over 10 µM.
In the case of `COc1ccc(NS(=O)(=O)c2cc(Br)cc3c2OCCNC3=O)cc1Cl` [BC19614], the IC50 in test [1] and in test [2] was over 10 µM in each case.
Take `N#Cc1ccc(NS(=O)(=O)c2cc(Br)cc3c2OCCNC3=O)cc1` [BC19615]: the results for the IC50 in test [1] and in test [2] were 0.1 to 1 µM and over 10 µM, respectively.
The matching figures for `CN1CCN(CCNC(=O)Nc2ccc3nc(-c4ccc(F)cc4)c(-c4ccc(F)cc4)nc3c2)CC1` [BC19616]: 0.1 to 1 µM and 1 to 10 µM.
The matching figures for `O=C(NCCCN1CCCC1=O)Nc1ccc2nc(-c3ccc(F)cc3)c(-c3ccc(F)cc3)nc2c1` [BC19617]: 0.1 to 1 µM and over 10 µM.
The matching figures for `CN1CCN(C(=O)c2ccc3nc(-c4ccc(F)cc4)c(-c4ccc(F)cc4)nc3n2)CC1` [BC19618]: 0.1 to 1 µM and over 10 µM.
As to `CNc1ncc(-c2ccc3nc(-c4ccc(F)cc4)c(-c4ccc(F)cc4)nc3c2)o1` [BC19619], the concentration for half-maximal inhibition (IC50) in test [1] is 1 to 10 µM; in test [2], over 10 µM.
Taken in the same sequence, the figures for `CC(C)[S+]([O-])c1sc(-c2cccc(F)c2)nc1S(=O)(=O)c1ccc(Cl)cc1` (stereo not shown) [BC19620] were over 10 µM and over 10 µM.
The matching figures for `CCCS(=O)(=O)c1sc(-c2ccc(Cl)cc2)nc1S(=O)(=O)c1ccc(Cl)cc1` [BC19621]: 1 to 10 µM and 1 to 10 µM.
Take `CC(C)S(=O)(=O)c1sc(-c2ccc(Cl)cc2)nc1S(=O)(=O)c1ccc(Cl)cc1` [BC19622]: the IC50 in test [1] and in test [2] was 1 to 10 µM each time.
On to `O=S(=O)(c1ccc(Cl)cc1)c1nc(-c2ccc(Cl)cc2)sc1S(=O)(=O)C1CCCCC1` [BC19623], for which the IC50 in test [1] and in test [2] was over 10 µM in each case.
Take `CCCS(=O)(=O)c1sc(-c2ccccc2)nc1S(=O)(=O)c1ccc(Cl)cc1` [BC19624]: the IC50 in test [1] and in test [2] was 1 to 10 µM throughout.
As for `COCCS(=O)(=O)c1sc(-c2ccccc2)nc1S(=O)(=O)c1ccc(Cl)cc1` [BC19625], the IC50 in test [1] and in test [2] was 1 to 10 µM throughout.
Turning to `C[S+]([O-])c1sc(-c2ccccc2F)nc1S(=O)(=O)c1ccc(Cl)cc1` (stereo not shown) [BC19626], the IC50 in test [1] and in test [2] was 1 to 10 µM in each case.
Take `CCC[S+]([O-])c1sc(-c2ccccc2F)nc1S(=O)(=O)c1ccc(Cl)cc1` (stereo not shown) [BC19627]: the IC50 in test [1] is 1 to 10 µM; in test [2] it was over 10 µM.
Taken in the same sequence, the figures for `CCCS(=O)(=O)c1sc(-c2ccccc2F)nc1S(=O)(=O)c1ccc(Cl)cc1` [BC19628] were over 10 µM and over 10 µM.
`CC(C)[S+]([O-])c1sc(-c2ccccc2F)nc1S(=O)(=O)c1ccc(Cl)cc1` (stereo not shown) [BC19629]: the IC50 in test [1] and in test [2] was over 10 µM throughout.
Consider `CC(C)C[S+]([O-])c1sc(-c2ccccc2F)nc1S(=O)(=O)c1ccc(Cl)cc1` (stereo not shown) [BC19630], for which the figures for the IC50 in test [1] and in test [2] were over 10 µM and 1 to 10 µM, respectively.
Consider `CC(C)CS(=O)(=O)c1sc(-c2ccccc2F)nc1S(=O)(=O)c1ccc(Cl)cc1` [BC19631], for which the IC50 in test [1] is 1 to 10 µM; in test [2], over 10 µM.
The matching figures for `O=S(=O)(c1ccc(Cl)cc1)c1nc(-c2ccccc2F)sc1[S+]([O-])CC1CC1` (stereo not shown) [BC19632]: over 10 µM and over 10 µM.
Taken in the same sequence, the figures for `O=S(=O)(CC1CC1)c1sc(-c2ccccc2F)nc1S(=O)(=O)c1ccc(Cl)cc1` [BC19633] were 1 to 10 µM and 1 to 10 µM.
The matching figures for `Cn1c(-c2ccccc2)nc(S(=O)(=O)c2ccc(F)cc2)c1S(=O)(=O)CC1CC1` [BC19634]: over 10 µM and over 10 µM.
In the case of `CC(C)[S+]([O-])c1sc(C2CCCCC2)nc1S(=O)(=O)c1ccc(Cl)cc1` (stereo not shown) [BC19635], the IC50 in test [1] and in test [2] was over 10 µM throughout.
In the case of `CC(C)S(=O)(=O)c1sc(C2CCCCC2)nc1S(=O)(=O)c1ccc(Cl)cc1` [BC19636], the IC50 in test [1] and in test [2] was over 10 µM in each case.
As for `CC(C)C[S+]([O-])c1sc(C2CCCCC2)nc1S(=O)(=O)c1ccc(Cl)cc1` (stereo not shown) [BC19637], the IC50 in test [1] and in test [2] was over 10 µM each time.
On to `CC(C)CS(=O)(=O)c1sc(C2CCCCC2)nc1S(=O)(=O)c1ccc(Cl)cc1` [BC19638], for which the IC50 in test [1] and in test [2] was over 10 µM each time.
`O=S(=O)(CC1CC1)c1sc(C2CCCCC2)nc1S(=O)(=O)c1ccc(Cl)cc1` [BC19639]: the IC50 in test [1] and in test [2] was over 10 µM throughout.
With `C[S+]([O-])c1sc(C2CCCCC2)nc1S(=O)(=O)c1ccc(Cl)cc1` (stereo not shown) [BC19640], the IC50 in test [1] and in test [2] was over 10 µM in each case.
For the compound `CS(=O)(=O)c1sc(C2CCCCC2)nc1S(=O)(=O)c1ccc(Cl)cc1` [BC19641], the IC50 in test [1] and in test [2] was over 10 µM each time.
Regarding `COCC[S+]([O-])c1sc(C2CCCCC2)nc1S(=O)(=O)c1ccc(Cl)cc1` (stereo not shown) [BC19642], the IC50 in test [1] and in test [2] was over 10 µM in each case.
For `Cn1c(-c2ccccc2)nc(S(=O)(=O)c2ccc(F)cc2)c1[S+](C)[O-]` (stereo not shown) [BC19644], the IC50 in test [1] and in test [2] was over 10 µM each time.
For `CCC[S+]([O-])c1sc(C2CCCCC2)nc1S(=O)(=O)c1ccc(Cl)cc1` (stereo not shown) [BC19645], the IC50 in test [1] and in test [2] was over 10 µM each time.
Turning to `CCCS(=O)(=O)c1sc(C2CCCCC2)nc1S(=O)(=O)c1ccc(Cl)cc1` [BC19646], the IC50 in test [1] and in test [2] was over 10 µM each time.
For `O=S1(=O)CCCn2c(-c3ccccc3)nc(S(=O)(=O)c3ccc(Cl)cc3)c21` [BC19647], the IC50 in test [1] was over 10 µM; in test [2], 1 to 10 µM.
The matching figures for `O=C1CCOc2c(cc(Br)cc2S(=O)(=O)Nc2ccc(OC(F)(F)F)cc2)N1` [BC19648]: under 0.1 µM and over 10 µM.
Regarding `O=C1CCOc2c(cc(Br)cc2S(=O)(=O)Nc2cccc(F)c2)N1` [BC19649], the values for the IC50 in test [1] and in test [2] were under 0.1 µM and over 10 µM, respectively.
Taken in the same sequence, the figures for `O=C1CCOc2c(cc(Br)cc2S(=O)(=O)Nc2cccc(Cl)c2)N1` [BC19650] were under 0.1 µM and over 10 µM.
The matching figures for `Cc1ccc(NS(=O)(=O)c2cc(Br)cc3c2OCCC(=O)N3)cc1Cl` [BC19651]: 0.1 to 1 µM and over 10 µM.
`O=C1CCOc2cc(S(=O)(=O)Nc3ccc(OC(F)(F)F)cc3)c(Br)cc2N1` [BC19652]: the results for the IC50 in test [1] and in test [2] were 1 to 10 µM and over 10 µM, respectively.
Turning to `Cc1ccc(NS(=O)(=O)c2cc3c(cc2Br)NC(=O)CCO3)cc1F` [BC19653], the IC50 in test [1] and in test [2] was over 10 µM each time.
On to `O=C1CCOc2cc(S(=O)(=O)Nc3cccc(F)c3)c(Br)cc2N1` [BC19654], for which the IC50 in test [1] and in test [2] was over 10 µM each time.
As to `O=C1CCOc2cc(S(=O)(=O)Nc3cccc(Cl)c3)c(Br)cc2N1` [BC19655], the IC50 in test [1] and in test [2] was over 10 µM in each case.
Take `O=C1CCOc2cc(S(=O)(=O)Nc3ccc(Cl)cc3)c(Br)cc2N1` [BC19656]: the IC50 in test [1] is 1 to 10 µM; in test [2], over 10 µM.
The matching figures for `CCc1cccc(NS(=O)(=O)c2cc3c(cc2Br)NC(=O)CCO3)c1` [BC19657]: 1 to 10 µM and over 10 µM.
The matching figures for `O=C1CCOc2cc(S(=O)(=O)Nc3ccc(F)cc3Cl)c(Br)cc2N1` [BC19658]: over 10 µM and over 10 µM.
Taken in the same sequence, the figures for `Cc1ccc(NS(=O)(=O)c2cc3c(cc2Br)NC(=O)CCO3)cc1Cl` [BC19659] were over 10 µM and over 10 µM.
With `O=C1CCOc2cc(S(=O)(=O)Nc3ccc(F)cc3)c(Br)cc2N1` [BC19660], the IC50 in test [1] and in test [2] was over 10 µM throughout.
`Cc1ccc(NS(=O)(=O)c2cc3c(cc2Br)NC(=O)CCO3)cc1` [BC19661]: the IC50 in test [1] and in test [2] was over 10 µM in each case.
Take `CN1CCN(C(=O)C2CCc3nc(-c4ccc(F)cc4)c(-c4ccc(F)cc4)nc3C2)CC1` (stereo not shown) [BC19663]: the IC50 in test [1] is 0.1 to 1 µM; in test [2], over 10 µM.
Taken in the same sequence, the figures for `OCCCn1c(-c2ccc3nc(-c4ccc(F)cc4)c(-c4ccc(F)cc4)nc3c2)n[nH]c1=S` [BC19664] were 0.1 to 1 µM and 0.1 to 1 µM.
